# Experiments:
# HepG2 [1] = assay: Cytotoxicity against Homo sapiens (human) HepG2 cells assessed as cell viability at 25 ug/ml after 48 hr by MTT assay relative to control; assay type: functional; details: HepG2, 48 h, read-out: Activity
# MCF7 [2] = assay: Cytotoxicity against Homo sapiens (human) MCF7 cells assessed as cell viability at 1.56 ug/ml after 48 hr by MTT assay relative to control; assay type: functional; details: MCF7, 48 h, read-out: Activity
# [3] = Cytotoxicity against Homo sapiens (human) HCT cells assessed as cell viability at 3.125 ug/ml after 48 hr by MTT assay relative to control; assay type: functional; details: read-out: Activity
# HepG2 [4] = assay: Cytotoxicity against Homo sapiens (human) HepG2 cells assessed as cell viability at 12.5 ug/ml after 48 hr by MTT assay relative to control; assay type: functional; details: HepG2, 48 h, read-out: Activity
# HepG2 [5] = assay: Cytotoxicity against Homo sapiens (human) HepG2 cells assessed as cell viability at 1.56 ug/ml after 48 hr by MTT assay relative to control; assay type: functional; details: HepG2, 48 h, read-out: Activity
# [6] = Cytotoxicity against Homo sapiens (human) HCT cells assessed as cell viability at 25 ug/ml after 48 hr by MTT assay relative to control; assay type: functional; details: read-out: Activity
# MCF7 [7] = assay: Cytotoxicity against Homo sapiens (human) MCF7 cells assessed as cell viability at 25 ug/ml after 48 hr by MTT assay relative to control; assay type: functional; details: MCF7, 48 h, read-out: Activity
# HepG2 [8] = assay: Cytotoxicity against Homo sapiens (human) HepG2 cells assessed as cell viability at 3.125 ug/ml after 48 hr by MTT assay relative to control; assay type: functional; details: HepG2, 48 h, read-out: Activity
# HepG2 [9] = assay: Cytotoxicity against Homo sapiens (human) HepG2 cells assessed as cell viability at 50 ug/ml after 48 hr by MTT assay relative to control; assay type: functional; details: HepG2, 48 h, read-out: Activity
# MCF7 [10] = assay: Cytotoxicity against Homo sapiens (human) MCF7 cells after 48 hr by MTT assay; assay type: functional, cell-based; details: MCF7, 48 h
# MCF7 [11] = assay: Cytotoxicity against Homo sapiens (human) MCF7 cells assessed as cell viability at 3.125 ug/ml after 48 hr by MTT assay relative to control; assay type: functional; details: MCF7, 48 h, read-out: Activity
# [12] = Cytotoxicity against Homo sapiens (human) HCT cells assessed as cell viability at 12.5 ug/ml after 48 hr by MTT assay relative to control; assay type: functional; details: read-out: Activity
# HepG2 [13] = assay: Cytotoxicity against Homo sapiens (human) HepG2 cells assessed as cell viability at 6.25 ug/ml after 48 hr by MTT assay relative to control; assay type: functional; details: HepG2, 48 h, read-out: Activity
# MCF7 [14] = assay: Cytotoxicity against Homo sapiens (human) MCF7 cells assessed as cell viability at 50 ug/ml after 48 hr by MTT assay relative to control; assay type: functional; details: MCF7, 48 h, read-out: Activity
# HepG2 [15] = assay: Cytotoxicity against Homo sapiens (human) HepG2 cells after 48 hr by MTT assay; assay type: functional, cell-based; details: Homo sapiens, HepG2, 48 h; read-out: IC50
# [16] = Cytotoxicity against Homo sapiens (human) HCT cells assessed as cell viability at 6.25 ug/ml after 48 hr by MTT assay relative to control; assay type: functional; details: read-out: Activity
# [17] = Cytotoxicity against Homo sapiens (human) HCT cells assessed as cell viability at 1.56 ug/ml after 48 hr by MTT assay relative to control; assay type: functional; details: read-out: Activity
# MCF7 [18] = assay: Cytotoxicity against Homo sapiens (human) MCF7 cells assessed as cell viability at 12.5 ug/ml after 48 hr by MTT assay relative to control; assay type: functional; details: MCF7, 48 h, read-out: Activity
# [19] = Cytotoxicity against Homo sapiens (human) HCT cells assessed as cell viability at 50 ug/ml after 48 hr by MTT assay relative to control; assay type: functional; details: read-out: Activity
# MCF7 [20] = assay: Cytotoxicity against Homo sapiens (human) MCF7 cells assessed as cell viability at 6.25 ug/ml after 48 hr by MTT assay relative to control; assay type: functional; details: MCF7, 48 h, read-out: Activity
# [21] = Cytotoxicity against Homo sapiens (human) HCT cells after 48 hr by MTT assay; assay type: functional, cell-based
Compound,viability at 25 µg/mL (HepG2 [1]) [%],viability at 1.56 µg/mL (MCF7 [2]) [%],viability at 3.125 µg/mL [3] [%],viability at 12.5 µg/mL (HepG2 [4]) [%],viability at 1.56 µg/mL (HepG2 [5]) [%],viability at 25 µg/mL [6] [%],viability at 25 µg/mL (MCF7 [7]) [%],viability at 3.125 µg/mL (HepG2 [8]) [%],viability at 50 µg/mL (HepG2 [9]) [%],IC50 (MCF7 [10]) [µg/mL],viability at 3.125 µg/mL (MCF7 [11]) [%],viability at 12.5 µg/mL [12] [%],viability at 6.25 µg/mL (HepG2 [13]) [%],viability at 50 µg/mL (MCF7 [14]) [%],IC50 (HepG2 [15]) [µg/mL],viability at 6.25 µg/mL [16] [%],viability at 1.56 µg/mL [17] [%],viability at 12.5 µg/mL (MCF7 [18]) [%],viability at 50 µg/mL [19] [%],viability at 6.25 µg/mL (MCF7 [20]) [%],further results
CC(=O)NC1=C(C#N)C(c2ccc(Cl)cc2)c2ccc3ccc(C)nc3c2O1 (configuration not stated),35.9,96.3,85.2,60.2,100,42.5,54,89.7,23.8,38.6,86.5,53.3,78.6,46.2,17.8,77.5,96.4,68.7,22,76.8,IC50 [21]: 14.6 µg/mL
CC(=O)NC1=C(C#N)C(c2ccc(Br)cc2)c2ccc3ccc(C)nc3c2O1 (configuration not stated),51.2,94.8,95.1,68.6,98.8,44.5,32.1,90.7,32.6,13.5,79.9,71.8,81.6,23.4,26.5,86.8,99.8,51.2,22.5,65.8,IC50 [21]: 21.3 µg/mL
Nc1ncnc2c1C(c1ccc(Cl)cc1)c1ccc3cccnc3c1O2 (configuration not stated),67.6,100,78.6,73.3,94.4,42,68.8,90.4,64.3,44.6,94.5,62.1,83.3,45.4,> 50,74.6,83.1,75.8,26.4,81.2,IC50 [21]: 19.2 µg/mL
Cc1ccc2ccc3c(c2n1)Oc1ncnc(N)c1C3c1ccc(Cl)cc1 (configuration not stated),37,100,98.8,43.7,68.3,51.1,81.7,60.2,28.3,> 50,97.3,78.9,50.8,70.2,6.3,90.5,100,89.2,41.6,94.5,IC50 [21]: 26.4 µg/mL
CCO/C=N/C1=C(C#N)C(c2ccc(Cl)cc2)c2ccc3cccnc3c2O1 (configuration not stated),57.1,98.3,81.7,72.3,97.6,51.4,67.1,91,39.4,45.4,93,67.1,86.6,43,31.1,73.3,93.4,74.2,23.9,81.4,IC50 [21]: 25.7 µg/mL
CCO/C=N/C1=C(C#N)C(c2ccc(Cl)cc2)c2ccc3ccc(C)nc3c2O1 (configuration not stated),69,96.1,54.9,79.4,100,18.4,48.6,96.4,45.2,23.8,87.4,26,85.1,37.5,44.5,35.3,75.5,63.4,15.2,76.6,IC50 [21]: 3.6 µg/mL
CCO/C=N/C1=C(C#N)C(c2ccc(Br)cc2)c2ccc3ccc(C)nc3c2O1 (configuration not stated),62.9,98.1,62.9,76.4,100,23.3,67.4,94.6,34.6,> 50,95.4,34,83.3,56.6,37.1,46.5,81.9,79.2,19.8,87.6,IC50 [21]: 5.8 µg/mL

# Reference: ChEMBL document CHEMBL3045319, “Synthesis, antitumor activity, and structureactivity relationship of some 4H-pyrano[3,2-h]quinoline and 7H-pyrimido[4,5:6,5]pyrano[3,2-h]quinoline derivatives” (Med Chem Res, 2013)
